Data taken from PubChem BioAssay AID1347132.
The source made the active and inactive calls.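 Rule for the calls: active = over 75% inhibition of phospholipid synthesis and over 75% inhibition of fatty acid synthesis; inactive = the rest.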

Test system: animal cells, 32Pi/[3H]acetate lipid labeling, 3 h
Assay: lipid synthesis blockade by radiolabel incorporation – cell-based, 32Pi and [3H]acetate labeling (AID 1347132)

CC(C)(C)c1cc(/C=C(\C#N)C(N)=S)cc(C(C)(C)C)c1O
outcome: inactive | outcome (listed dose 0.1 µM): inactive | outcome (listed dose 0.3 µM): inactive | outcome (listed dose 1 µM): inactive | outcome (listed dose 3 µM): inactive | outcome (listed dose 10 µM): active
